Assay results: publication PMC3827244, “An Ultrasensitive High Throughput Screen for DNA Methyltransferase 1-Targeted Molecular Probes” (PLoS ONE, 2013)
Like-named read-outs stand apart in the source and are kept apart here.

How the values were obtained:
[1] = molecular target: T1, DNMT1 (amino acids 621–1616) (Homo sapiens, UniProt P26358); assay: Validation of HTS hits, endonuclease-coupled DNA methylation assay; assay type: biochemical; set-up: Percent Activity: concentration or dose not given beside the values; conditions: for vo (initial velocity): first 12 minutes of GlaI corrected triplicate reaction traces; for Percent Activity: from initial velocity compared to DMSO control; for Normalized RFU: normalized to DMSO control (100) and GlaI control without DNMT1 (0); for RFU: relative fluorescence after 25-minute incubation at 37 °C, 10.9 µM test compound, three replicates
T1 construct: RFTS-lacking DNMT1, amino acids 621–1616; made in house
Protocol: DNMT activity was measured at 37°C using a fluorogenic DNA methylation assay. In short, a hemi-methylated hairpin oligonucleotide with a 5′ fluorophore and a 3′ quencher is methylated by addition of a DNMT and the methyl-donating co-factor, S-adenosyl methionine (SAM, HPLC-purified from Sigma). The fully methylated product is a substrate for the restriction endonuclease GlaI (Sibenzyme), which cleaves the oligonucleotide, releasing the fluorophore from the quencher and generating fluorescence. The oligonucleotide substrate (5′-FAM–[…]m[…]mCGmCATAGG-3′-Iowa Black, in which mC denotes 5-methyldeoxycytidylate residues), termed 8006, was synthesized by Integrated DNA Technologies, Coralville, IA. 96 well assays were performed in Co-Star black half-area plates and read in a Biotek Synergy Neo plate reader. 384 well assays were performed in Nunc flat-bottomed black plates and read in a PerkinElmer EnVision plate reader. FAM fluorescence was measured using excitation and emission wavelengths of 485 nm and 520 nm, respectively.
HTS against the Spectrum compound collection (Microsource, Gaylordsville, CT) was performed in eight 384 well plates. Using a Multiflo dispenser (Biotek), 75 µl of assay buffer (10.8 mM Tris-HCl pH 7.5, 1.08 mM MgCl2, 1.08 mM DTT, 108 mM potassium glutamate, 0.108 mg/ml BSA, 10.8 µM SAM, 21.6 nM oligonucleotide 8006, 5.4% glycerol) was dispensed into each well. 1 µl of each compound at 880 µM in DMSO (columns 3–22) or DMSO (columns 1, 2, 23 and 24) was added to assay plates using a Microlab Star liquid handling robot (Hamilton) and the plate was incubated at 37°C for 10 minutes. Following this warming step, 5 µl enzyme solution (either a DNMT1-containing solution of 20 mM Tris-HCl, pH 7.5, 300 mM NaCl, 2 mM DTT, 49 nM DNMT1 (amino acids 621–1616), 0.08 U/µl GlaI, 30% glycerol to columns 2–23 or a GlaI control solution of 20 mM Tris-HCl, pH 7.5, 300 mM NaCl, 2 mM DTT, 0.08 U/µl GlaI, 30% glycerol to columns 1 and 24) was added and the plate was again incubated at 37°C for 25 minutes. […] Each 384 well plate contained two columns of negative (n) and positive (p) controls for inhibitor activity. Columns 2 and 23 were the n controls with DMSO without test compound. Columns 1 and 24 were the p controls without DNMT1. Thus, 320 compounds were assayed per 384 well plate in columns 3–22.
Data across the screen were normalized to the p (0% DNMT1 activity) and n (100% DNMT1 activity) controls on each plate. […] Validation assays (81 µl total volume, identical buffer conditions to those used in the HTS screen) were performed in triplicate in 96 well plates with FAM fluorescence measured over the course of 1 hour. A control containing GlaI in the absence of DNMT1 was subtracted from each assay condition. Corrected assay traces were plotted and compared to DMSO-containing control traces in Prism (GraphPad Software, Inc).

[2] = molecular target: T1, DNMT1 (amino acids 621–1616); assay: Detergent test, endonuclease-coupled DNA methylation assay; assay type: biochemical; conditions: 5 µM compound
Source text: The effect of detergent on observed DNMT1 inhibition was examined using the endonuclease-coupled DNA methylation assay. […] A control containing GlaI in the absence of DNMT1 was subtracted from each assay condition. Corrected assay traces were fitted in Prism.

GlaI = GlaI counterscreen; assay type: biochemical; conditions: 11 µM test compound; for Initial Velocity: 5 nM oligonucleotide 8007, 0.2 U GlaI; for Percent Activity: compared to DMSO
Protocol: GlaI inhibitors were identified and excluded using a fluorescence-based assay. Duplicate assays (80 µl) were conducted in 96 well plates. Assays contained 10 mM Tris-HCl pH 7.5, 100 mM potassium glutamate, 1 mM MgCl2, 1 mM DTT, 0.1 mg/mL BSA, 5% glycerol, 5 nM oligonucleotide 8007 (5′-FAM-CCTATGmCGm[…]mCGmCATAGG-3′-Iowa Black, where mC denotes 5-methyldeoxycytidylate residues, Integrated DNA Technologies, Coralville, IA), 0.2 U GlaI, 11 µM test compound and 1.2% DMSO. Reactions were initiated by the addition of GlaI. Cleavage of the oligonucleotide releases the 5′ FAM fluorophore from the 3′ Iowa Black quencher and generates fluorescence. A control reaction in the absence of GlaI was subtracted from each assay condition to account for background fluorescence of the internally quenched substrate. Corrected time courses were fitted in Prism.

CD-DNMT3A/DNMT3L complex = molecular target: T2, CD-DNMT3A/DNMT3L complex (Homo sapiens, UniProt Q9Y6K1); assay: Compound selectivity, endonuclease-coupled DNA methylation assay; assay type: biochemical; conditions: 20 µM inhibitor; for Percent activity, DNMT3A/DNMT3L Complex: 20 nM methyltransferase, 0.25 mM SAM
T2 construct: CD-DNMT3A; amino acids 611–912; His tag (N); made in house; host or cells: Rosetta 2(DE3)pLysS (E. coli) for CD-DNMT3A
Protocol: Triplicate assays (100 µl) containing 0.25 mM SAM, 0.2 µM oligonucleotide 8006, 0.8 U GlaI, 20 nM methyltransferase, 20 µM inhibitor and 1% DMSO were conducted in 96 well plates. Following enzyme addition, assay plates were incubated at 37°C for 75 min and fluorescence was measured in a BioTek Neo plate reader. A control containing only GlaI was subtracted from each assay. […] Percent activity was determined by comparing product formation to a DMSO containing control assay.

[3] = molecular target: T1, DNMT1 (amino acids 621–1616); assay: Differential scanning fluorimetry (DSF) assay; assay type: binding; conditions: 100 µM compound; for Tm: 2 µM DNMT1, no DNA or SAM, DMSO 46.5 ± 0.1; for ∆Tm: shift versus DMSO control
Protocol: DSF [32] was used to assess the ability of the validated inhibitors to bind directly to DNMT1 in the absence of DNA and SAM and alter the observed melting temperature (Tm). Assays (25 µl) were conducted in triplicate in a Bio-Rad C1000 Thermal Cycler – CFX Real-Time System using the FRET channel and contained 50 mM HEPES pH 7.5, 150 mM NaCl, 2 µM DNMT1 (amino acids 621–1616), 5X Sypro Orange (Invitrogen Molecular Probes), 100 µM compound, and 1% DMSO. A DMSO control assay in the absence of compounds was also examined. Temperature was increased from 25 to 95°C by 0.5°C per minute. Fluorescence traces were exported and analyzed by fitting to the Boltzmann equation in Prism to determine the Tm.

[4] = absence of 0.01% Triton X-100, read-out: Percent activity, 0.01% Triton X-100 -
[5] = presence of 0.01% Triton X-100, read-out: Percent activity, 0.01% Triton X-100 +

T1 sequence (P26358 621-1616): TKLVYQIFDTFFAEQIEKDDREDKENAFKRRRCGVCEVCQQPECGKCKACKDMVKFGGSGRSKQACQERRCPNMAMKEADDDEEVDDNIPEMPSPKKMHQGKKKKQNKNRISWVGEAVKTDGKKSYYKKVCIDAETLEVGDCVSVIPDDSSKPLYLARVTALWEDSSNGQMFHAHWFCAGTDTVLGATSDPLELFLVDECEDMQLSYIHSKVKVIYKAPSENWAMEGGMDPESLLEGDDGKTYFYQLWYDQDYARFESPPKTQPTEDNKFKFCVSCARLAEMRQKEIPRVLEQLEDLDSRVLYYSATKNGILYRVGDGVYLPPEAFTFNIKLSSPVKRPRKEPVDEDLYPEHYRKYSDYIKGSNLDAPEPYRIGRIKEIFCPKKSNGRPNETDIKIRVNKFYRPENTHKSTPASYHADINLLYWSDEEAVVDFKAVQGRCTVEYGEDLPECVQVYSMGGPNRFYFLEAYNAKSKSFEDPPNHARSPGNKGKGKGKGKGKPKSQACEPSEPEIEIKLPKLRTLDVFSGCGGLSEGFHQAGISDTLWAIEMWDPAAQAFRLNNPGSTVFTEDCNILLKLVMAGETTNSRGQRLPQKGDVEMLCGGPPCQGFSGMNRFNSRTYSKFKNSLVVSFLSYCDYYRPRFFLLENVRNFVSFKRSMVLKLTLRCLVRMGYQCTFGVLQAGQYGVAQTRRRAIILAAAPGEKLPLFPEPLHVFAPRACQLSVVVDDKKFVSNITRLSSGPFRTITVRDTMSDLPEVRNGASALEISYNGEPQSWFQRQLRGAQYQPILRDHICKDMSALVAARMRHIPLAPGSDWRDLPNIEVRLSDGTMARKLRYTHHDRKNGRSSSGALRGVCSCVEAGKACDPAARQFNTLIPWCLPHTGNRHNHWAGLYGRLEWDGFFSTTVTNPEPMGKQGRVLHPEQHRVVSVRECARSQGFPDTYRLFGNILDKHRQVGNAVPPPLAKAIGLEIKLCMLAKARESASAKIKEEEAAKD
T2 sequence (Q9Y6K1 611-912): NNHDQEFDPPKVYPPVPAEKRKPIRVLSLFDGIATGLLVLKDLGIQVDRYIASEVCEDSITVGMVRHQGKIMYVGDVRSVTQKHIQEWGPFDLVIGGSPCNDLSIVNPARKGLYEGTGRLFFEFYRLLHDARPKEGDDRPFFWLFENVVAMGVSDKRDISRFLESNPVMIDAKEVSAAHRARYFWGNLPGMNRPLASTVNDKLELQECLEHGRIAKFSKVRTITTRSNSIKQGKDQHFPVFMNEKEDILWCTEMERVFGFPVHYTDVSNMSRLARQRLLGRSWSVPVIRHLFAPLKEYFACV
T2 sequence (Q9UJW3 whole entry partner, the tested form may be a part): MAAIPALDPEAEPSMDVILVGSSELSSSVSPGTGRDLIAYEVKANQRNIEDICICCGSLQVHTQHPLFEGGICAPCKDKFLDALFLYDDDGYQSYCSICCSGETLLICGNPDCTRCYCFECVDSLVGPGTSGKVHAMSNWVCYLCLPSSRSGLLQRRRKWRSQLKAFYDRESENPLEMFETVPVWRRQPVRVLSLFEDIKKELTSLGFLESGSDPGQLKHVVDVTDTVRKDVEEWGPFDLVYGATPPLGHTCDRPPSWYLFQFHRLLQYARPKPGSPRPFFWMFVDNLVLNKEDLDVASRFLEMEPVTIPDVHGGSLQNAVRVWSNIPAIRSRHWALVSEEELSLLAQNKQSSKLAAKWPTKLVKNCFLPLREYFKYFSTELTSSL

SMILES	vo (initial velocity) [1] [RFU/min]	Percent Activity [1] [%]	Normalized RFU [1]	RFU [1] [RFU]	remaining activity at 5 µM [2, 4] [%]	remaining activity at 5 µM [2, 5] [%]	Initial Velocity (GlaI) [RFU/min]	selectivity for DNMT1 versus DNMT3A/DNMT3L (in words) (CD-DNMT3A/DNMT3L complex)	Percent activity, DNMT3A/DNMT3L Complex (CD-DNMT3A/DNMT3L complex) [%]	Tm [3]	∆Tm [3]	Percent Activity (GlaI) [%]
Oc1cc(Cl)ccc1Oc1ccc(Cl)cc1Cl [Cmpd 13, triclosan]	15 ± 2	27	19	779 ± 42	52	48	28 ± 2	nonselective	23±10	47.5 ± 0.1 ºC	+1.0 ºC	–
O=C(O)c1cc(O)c2c(c1)[C@@H]([C@H]1c3cc(C(=O)O)cc(O)c3C(=O)c3c(O[C@H]4O[C@H](CO)[C@@H](O)[C@H](O)[C@H]4O)cccc31)c1cccc(O[C@H]3O[C@H](CO)[C@@H](O)[C@H](O)[C@H]3O)c1C2=O [Cmpd 22]	–	0	7	621 ± 12	7	9	24 ± 1	–	88±11	47.5 ± 0.1 ºC	+1.0 ºC	86
CC1/C=C/C=C/C=C/C=C/C=C/C=C/C=C/C(O[C@@H]2O[C@H](C)[C@H](O)[C@@H](O)[C@@H]2N)CC(O)C(C(=O)O)C(O)CC(=O)CC(O)CC(O)CC(O)CC(=O)CCCC(=O)CC(=O)OC1C(C)CC(C)C(O)CC(=O)c1ccc(N)cc1 (some centres unmarked) [Cmpd 24]	5 ± 1	9	11	677 ± 60	0	0	27 ± 1	–	49±16	47.5 ± 0.1 ºC	+1.0 ºC	–
O=C1c2ccccc2C(=O)c2c1ccc(O)c2O [Cmpd 26, alizarin]	27 ± 2	49	37	1024 ± 110	67	63	22 ± 1	nonselective	49±12	48.5 ± 0.1 ºC	+2.0 ºC	79
CSc1nc2cc(Cl)c(Oc3cccc(Cl)c3Cl)cc2[nH]1 [Cmpd 29, triclabendazole]	20 ± 2	36	27	889 ± 20	52	46	22 ± 2	exhibited selectivity	110±5	48.3 ± 0.1 ºC	+1.8 ºC	79
O=c1c(O)c(-c2ccc(O)c(O)c2)oc2c(O)c(O)cc(O)c12 [Cmpd 33]	25 ± 3	45	46	1145 ± 147	53	47	27 ± 2	–	74±13	64.4 ± 0.2 ºC	+17.9 ºC	–
O=C(O)c1cc(O)c2c(c1)[C@@H]([C@@H]1c3cc(C(=O)O)cc(O)c3C(=O)c3c(O[C@H]4O[C@H](CO)[C@@H](O)[C@H](O)[C@H]4O)cccc31)c1cccc(O[C@H]3O[C@H](CO)[C@@H](O)[C@H](O)[C@H]3O)c1C2=O [Cmpd 36]	–	0	5	591 ± 41	0	0	28 ± 1	–	83±15	47.4 ± 0.1 ºC	+0.9 ºC	–
